The source of these data is patent US12365655B2, “Compounds” (CTXT PTY LTD, priority 2018, dated 2025).

One test concerns the target TIP60-KAT5 (Homo sapiens, UniProt Q92993). Kind of test: Acetyltransferase biochemical assay (AlphaScreen), KAT5. (Bead proximity is the source of the signal in Alpha formats.)
In the next test the target is MOZ-KAT6A (Homo sapiens, UniProt Q92794, A567V). Description: Acetyltransferase biochemical assay (AlphaScreen), KAT6A.
For the next test, the target named is HBO-KAT7 (Homo sapiens, UniProt O95251). Kind of test: Acetyltransferase biochemical assay (AlphaScreen), KAT7.
Sequence of HBO-KAT7 (O95251 with tags, fused parts or gaps): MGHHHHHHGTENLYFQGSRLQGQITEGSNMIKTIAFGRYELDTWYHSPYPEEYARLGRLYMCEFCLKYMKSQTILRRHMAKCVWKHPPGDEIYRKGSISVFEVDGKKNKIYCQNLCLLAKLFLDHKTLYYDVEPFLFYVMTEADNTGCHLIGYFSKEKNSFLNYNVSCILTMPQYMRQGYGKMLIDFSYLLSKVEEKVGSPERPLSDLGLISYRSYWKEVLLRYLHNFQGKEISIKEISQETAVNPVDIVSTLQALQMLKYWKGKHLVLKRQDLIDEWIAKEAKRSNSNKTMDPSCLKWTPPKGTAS

A value given as a limit tells only on which side of the number the result lay.

Sequence of MOZ-KAT6A (Q92794 with tags, fused parts or gaps A567V): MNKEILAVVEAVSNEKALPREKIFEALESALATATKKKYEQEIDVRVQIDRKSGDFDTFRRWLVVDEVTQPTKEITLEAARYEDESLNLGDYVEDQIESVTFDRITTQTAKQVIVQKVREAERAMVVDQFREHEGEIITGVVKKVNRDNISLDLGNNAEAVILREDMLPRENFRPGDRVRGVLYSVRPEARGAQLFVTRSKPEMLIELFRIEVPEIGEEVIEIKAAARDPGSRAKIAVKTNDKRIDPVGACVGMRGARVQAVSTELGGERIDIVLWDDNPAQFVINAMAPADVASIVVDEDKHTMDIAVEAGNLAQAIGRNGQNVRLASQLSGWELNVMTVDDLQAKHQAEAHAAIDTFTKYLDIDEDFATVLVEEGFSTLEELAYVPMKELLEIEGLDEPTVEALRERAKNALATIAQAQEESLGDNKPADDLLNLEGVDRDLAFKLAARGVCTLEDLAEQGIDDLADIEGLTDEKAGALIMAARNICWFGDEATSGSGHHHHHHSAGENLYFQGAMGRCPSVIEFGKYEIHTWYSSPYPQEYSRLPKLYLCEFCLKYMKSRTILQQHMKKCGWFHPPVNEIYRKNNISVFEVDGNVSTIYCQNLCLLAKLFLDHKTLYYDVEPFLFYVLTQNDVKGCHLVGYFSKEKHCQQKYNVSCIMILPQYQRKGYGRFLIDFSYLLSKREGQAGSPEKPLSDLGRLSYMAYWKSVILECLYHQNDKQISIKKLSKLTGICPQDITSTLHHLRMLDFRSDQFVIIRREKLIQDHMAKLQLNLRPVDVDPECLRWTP
Sequence of TIP60-KAT5 (Q92993 with tags, fused parts or gaps isoform Q92993-2): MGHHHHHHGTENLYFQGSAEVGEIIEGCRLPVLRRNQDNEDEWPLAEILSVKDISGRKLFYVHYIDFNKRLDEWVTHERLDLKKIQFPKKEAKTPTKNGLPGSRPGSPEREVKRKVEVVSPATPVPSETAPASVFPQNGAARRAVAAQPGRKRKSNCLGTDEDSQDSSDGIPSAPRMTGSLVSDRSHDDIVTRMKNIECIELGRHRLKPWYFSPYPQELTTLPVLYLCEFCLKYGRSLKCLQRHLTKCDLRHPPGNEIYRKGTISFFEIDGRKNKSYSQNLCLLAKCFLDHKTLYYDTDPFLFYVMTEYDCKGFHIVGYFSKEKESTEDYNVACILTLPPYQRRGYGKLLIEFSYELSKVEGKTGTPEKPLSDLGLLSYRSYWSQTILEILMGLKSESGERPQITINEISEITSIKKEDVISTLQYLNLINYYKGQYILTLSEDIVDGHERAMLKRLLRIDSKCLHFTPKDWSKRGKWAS

In general, IC50 refers to the concentration that gives 50% inhibition. Low readings indicate higher potency, high ones lower potency. For the compound `COc1ccc2cccnc2c1S(=O)(=O)Nc1noc2cccc(OC)c12` [Example 98, 7-Methoxy-N-(4-methoxybenzo[d]isoxazol-3-yl)quinoline-8-sulfonamide], the IC50 was determined as 31.3 µM against TIP60-KAT5, 5.6 µM on MOZ-KAT6A and 3.41 µM on HBO-KAT7.

On to `COc1cccc(OC)c1S(=O)(=O)Nc1noc2cc(-n3nc(C)cc3C)ccc12` [Example 105], for which the IC50 on TIP60-KAT5 is more than 125 µM; on MOZ-KAT6A, 2.9 µM; against HBO-KAT7, 63.2 µM.

In the case of `O=S(=O)(Nc1noc2ccccc12)c1ccc(Cl)cc1Cl` [Example 62, N-(benzo[d]isoxazol-3-yl)-2,4-dichlorobenzene-sulfonamide], the IC50 on TIP60-KAT5 is more than 125 µM; against MOZ-KAT6A it was 43.7 µM; at HBO-KAT7 it was 70.6 µM.

`COc1cc(Br)ccc1S(=O)(=O)Nc1noc2ccccc12` [Example 141]: the IC50 against TIP60-KAT5 was more than 125 µM; on MOZ-KAT6A, 39.6 µM; against HBO-KAT7 it was 24.3 µM.

As to `O=S(=O)(Nc1noc2cccc(Cl)c12)c1ccccc1F` [Example 30, N-(4-chlorobenzo [d]isoxazol-3-yl)-2-fluorobenzenesulfonamide], the IC50 is more than 125 µM on TIP60-KAT5, 89.5 µM at MOZ-KAT6A and 11.5 µM at HBO-KAT7.

Turning to `COc1cccc(OC)c1S(=O)(=O)Nc1noc2cc(C)cc(OC)c12` [Example 244, 2,6-Dimethoxy-N-(4-methoxy-6-methylbenzo[d]isoxazol-3-yl)benzenesulfonamide], the IC50 against TIP60-KAT5 amounted to 30.2 µM; against MOZ-KAT6A it was 2.13 µM; at HBO-KAT7 it was 1.11 µM.

`O=S(=O)(Nc1noc2cccc(Cl)c12)c1cccc2ccccc12` [Example 124, N-(4-Chlorobenzo[d]isoxazol-3-yl)naphthalene-1-sulfonamide]: the figures for the IC50 against TIP60-KAT5, against MOZ-KAT6A and on HBO-KAT7 were 27.9 µM, 11 µM and 13 µM, respectively.

Regarding `CCc1ccc(OC)c(S(=O)(=O)Nc2noc3cc(-c4cncnc4)ccc23)c1` [Example 197, 5-Ethyl-2-methoxy-N-(6-(pyrimidin-5-yl)benzo[d]isoxazol-3-yl)benzenesulfonamide], the figures for the IC50 against TIP60-KAT5, against MOZ-KAT6A and against HBO-KAT7 were more than 125 µM, 21 µM and 45.7 µM, respectively.

`COc1cc2c(cc1S(=O)(=O)Nc1noc3ccc(Br)cc13)CCCC2` [Example 113, N-(5-bromobenzo[d]isoxazol-3-yl)-3-methoxy-5,6,7,8-tetrahydronaphthalene-2-sulfonamide]: the IC50 against TIP60-KAT5 was 4.84 µM; on MOZ-KAT6A, 0.775 µM; against HBO-KAT7, 0.914 µM.

For the compound `COc1ccc(C(F)(F)F)c(OC)c1S(=O)(=O)Nc1noc2cccc(OC)c12` [Example 101, 2,6-Dimethoxy-N-(4-methoxybenzo[d]isoxazol-3-yl)-3-(trifluoromethyl)benzenesulfonamide], the IC50 against TIP60-KAT5 was 98.2 µM; on MOZ-KAT6A, 3.8 µM; against HBO-KAT7 it was 32.8 µM.

Regarding `CCOc1cccc2onc(NS(=O)(=O)c3cc(CC)ccc3OC)c12` [Example 112], the IC50 is 16.5 µM on TIP60-KAT5, 1.46 µM against MOZ-KAT6A and 3.01 µM against HBO-KAT7.

On to `COCc1cccc(S(=O)(=O)Nc2noc3cccc(Cl)c23)c1` [Example 2, N-(4-chlorobenzo [d]isoxazol-3-yl)-3-(methoxymethyl) benzenesulfonamide], for which the values for the IC50 at TIP60-KAT5, at MOZ-KAT6A and against HBO-KAT7 were more than 125 µM, 94.6 µM and 15.5 µM, respectively.

For `CCc1cc2c(c(S(=O)(=O)Nc3noc4cccc(Cl)c34)c1)OCC2` [Example 181, N-(4-Chlorobenzo[d]isoxazol-3-yl)-5-ethyl-2,3-dihydrobenzofuran-7-sulfonamide], the IC50 at TIP60-KAT5 turned out to be 23.8 µM; at MOZ-KAT6A it was 1.06 µM; at HBO-KAT7, 5.14 µM.

Turning to `O=S(=O)(Nc1noc2cccc(Cl)c12)c1cccc2nsnc12` [Example 7, N-(4-chlorobenzo [d]isoxazol-3-yl)benzo[c][1,2,5]thiadiazole-4-sulfonamide], the figures for the IC50 against TIP60-KAT5, at MOZ-KAT6A and against HBO-KAT7 were more than 125 µM, 62.7 µM and 14.2 µM, respectively.

Regarding `COc1cc(CO)cc(OC)c1S(=O)(=O)Nc1noc2cccc(OC)c12` [Example 209, 4-(Hydroxymethyl)-2,6-dimethoxy-N-(4-methoxybenzo[d]isoxazol-3-yl)benzenesulfonamide], the IC50 against TIP60-KAT5 was determined as 28.7 µM; at MOZ-KAT6A, 2.03 µM; on HBO-KAT7, 1.05 µM.

As to `CCc1ccc(OC)c(S(=O)(=O)Nc2noc3ccc(Br)c(Cl)c23)c1` [Example 128, N-(5-bromo-4-chlorobenzo[d]isoxazol-3-yl)-5-ethyl-2-methoxy benzenesulfonamide], the IC50 against TIP60-KAT5 was 6.3 µM; at MOZ-KAT6A it was 0.25 µM; at HBO-KAT7, 0.618 µM.

On to `COc1ccccc1S(=O)(=O)Nc1noc2cc(Br)ccc12` [Example 157], for which the IC50 was more than 125 µM against TIP60-KAT5, 23 µM on MOZ-KAT6A and 15.5 µM against HBO-KAT7.

`O=S(=O)(Nc1noc2cccc(Cl)c12)c1ccc2c(c1)CCCC2` [Example 42, N-(4-chlorobenzo [d]isoxazol-3-yl)-5,6,7,8-tetrahydronaphthalene-2-sulfonamide]: the values for the IC50 at TIP60-KAT5, against MOZ-KAT6A and at HBO-KAT7 were 11.6 µM, 5.95 µM and 8.38 µM, respectively.

On to `COc1cccc(OC)c1S(=O)(=O)Nc1noc2cc(-c3ccncc3)cc(OC)c12` [Example 245, 2,6-Dimethoxy-N-(4-methoxy-6-(pyridin-4-yl)benzo[d]isoxazol-3-yl)benzenesulfonamide], for which the IC50 amounted to 57.6 µM on TIP60-KAT5, 3.9 µM against MOZ-KAT6A and 2.76 µM against HBO-KAT7.

For `COc1ccc(C(C)(C)C)cc1S(=O)(=O)Nc1noc2ccccc12` [Example 48, N-(benzo[d]isoxazol-3-yl)-5-(tert-butyl)-2-methoxy benzene sulfonamide], the figures for the IC50 on TIP60-KAT5, at MOZ-KAT6A and against HBO-KAT7 were 92.9 µM, 7.41 µM and 54.8 µM, respectively.

With `Cn1c(=O)oc2cc(S(=O)(=O)Nc3noc4cccc(Cl)c34)ccc21` [Example 13, N-(4-chlorobenzo [d]isoxazol-3-yl)-3-methyl-2-oxo-2,3-dihydrobenzo[d]oxazole-6-sulfonamide], the figures for the IC50 at TIP60-KAT5, on MOZ-KAT6A and on HBO-KAT7 were 120 µM, 63.9 µM and 63.8 µM, respectively.

Regarding `COc1ccc(S(=O)(=O)Nc2noc3cc(CO)ccc23)c(OC)c1` [Example 167], the IC50 was determined as 32.2 µM against TIP60-KAT5, 8.67 µM against MOZ-KAT6A and 6.85 µM against HBO-KAT7.

On to `O=S(=O)(Nc1noc2ccccc12)c1ccc2c(c1)CCCC2` [Example 65, N-(benzo[d]isoxazol-3-yl)-5,6,7,8-tetrahydro-naphthalene-2-sulfonamide], for which the IC50 at TIP60-KAT5 was more than 125 µM; at MOZ-KAT6A it was 27.9 µM; against HBO-KAT7 it was 59.7 µM.

`CCc1ccc(CC)c(S(=O)(=O)Nc2noc3ccccc23)c1` [Example 56, N-(benzo[d]isoxazol-3-yl)-2,5-diethylbenzene sulfonamide]: the IC50 on TIP60-KAT5 is more than 125 µM; against MOZ-KAT6A, 72.8 µM; against HBO-KAT7, more than 125 µM.

`COC(=O)c1ccc(Cl)cc1S(=O)(=O)Nc1noc2cccc(Cl)c12` [Example 115, Methyl 4-chloro-2-(N-(4-chlorobenzo[d]isoxazol-3-yl)sulfamoyl)benzoate]: the IC50 on TIP60-KAT5 is 23.7 µM; at MOZ-KAT6A, 29 µM; against HBO-KAT7 it was 95.5 µM.

On to `CCc1ccc(OC)c(S(=O)(=O)Nc2noc3cccc(C(F)(F)F)c23)c1` [Example 121, 5-Ethyl-2-methoxy-N-(4-(trifluoromethyl)benzo[d]isoxazol-3-yl)benzenesulfonamide], for which the IC50 at TIP60-KAT5 amounted to 29 µM; against MOZ-KAT6A, 1.24 µM; against HBO-KAT7, 5.21 µM.

Consider `CCc1ccc(OC)c(S(=O)(=O)Nc2noc3ccc(Cl)cc23)c1` [Example 150], for which the IC50 turned out to be 50 µM against TIP60-KAT5, 4.97 µM on MOZ-KAT6A and 8.04 µM at HBO-KAT7.

Take `CCc1ccc(OC)c(S(=O)(=O)Nc2noc3ccc(C#N)cc23)c1` [Example 233]: the IC50 at TIP60-KAT5 is more than 125 µM; against MOZ-KAT6A it was 9.95 µM; at HBO-KAT7, 17.9 µM.

Turning to `O=S(=O)(Nc1noc2cccc(Cl)c12)c1ccc(S(F)(F)(F)(F)F)cc1` [Example 35, N-(4-chlorobenzo [d]isoxazol-3-yl)-4-(pentafluoro-λ^6-sulfanyl)benzene sulfonamide], the results for the IC50 at TIP60-KAT5, on MOZ-KAT6A and against HBO-KAT7 were 33.8 µM, 4.63 µM and 8.75 µM, respectively.

Take `CCc1ccc(OC)c(S(=O)(=O)Nc2noc3ccc(C(N)=O)cc23)c1` [Example 232, 3-((5-Ethyl-2-methoxyphenyl)sulfonamido)benzo[d]isoxazole-5-carboxamide]: the IC50 was more than 125 µM at TIP60-KAT5, 46.5 µM at MOZ-KAT6A and more than 125 µM against HBO-KAT7.

`CCc1ccc(OC)c(S(=O)(=O)Nc2noc3c(-c4cncnc4)cccc23)c1` [Example 192, 5-Ethyl-2-methoxy-N-(7-(pyrimidin-5-yl)benzo[d]isoxazol-3-yl)benzenesulfonamide]: the IC50 was determined as 29.9 µM against TIP60-KAT5, 9.39 µM against MOZ-KAT6A and 24.2 µM at HBO-KAT7.

As for `O=S(=O)(Nc1noc2cccc(Cl)c12)c1ccc(OC(F)F)cc1` [Example 34, N-(4-chlorobenzo [d]isoxazol-3-yl)-4-(difluoromethoxy) benzenesulfonamide], the IC50 is more than 125 µM at TIP60-KAT5, more than 125 µM on MOZ-KAT6A and 31.5 µM against HBO-KAT7.

Turning to `COc1ccccc1S(=O)(=O)Nc1noc2cccc(F)c12` [Example 156], the values for the IC50 against TIP60-KAT5, against MOZ-KAT6A and at HBO-KAT7 were more than 125 µM, 1.54 µM and 1.97 µM, respectively.

As to `COc1cc(C)cc(-c2cc(OC)c3c(NS(=O)(=O)c4c(OC)cccc4OC)noc3c2)c1` [Example 248, 2,6-Dimethoxy-N-(4-methoxy-6-(3-methoxy-5-methylphenyl)benzo[d]isoxazol-3-yl)benzenesulfonamide], the figures for the concentration for half-maximal inhibition (IC50) on TIP60-KAT5, at MOZ-KAT6A and at HBO-KAT7 were 9.33 µM, 0.139 µM and 0.375 µM, respectively.
